# Laboratory results reported in PubChem BioAssay AID248 (DTP/NCI, 2004).
# Where “and” joins values, the source holds several entries; their conditions need not be identical. Equal values may be shown once. Toxic doses and inconclusive results are not listed.
# System: L1210 leukemia ip in BDF1 mice, survival T/C
# Experiment: NCI In Vivo Anticancer Drug Screen. Data for tumor model L1210 Leukemia (intraperitoneal) in B6D2F1 (BDF1) mice
# Details: endpoint: mean survival time, higher = longer survival
# Outline: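 Tumor was transplanted into mice, which were then dosed with test compound or vehicle alone. Survival was recorded for each group, and the treated figure was expressed relative to the control figure.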
# [1] = dose: 50.0 mg/kg/injection, schedule: Q01DX001 (ip), vehicle: carboxymethylcellulose (CMC)
# [2] = dose: 100.0 mg/kg/injection, schedule: Q01DX001 (ip), vehicle: carboxymethylcellulose (CMC)
# [3] = dose: 200.0 mg/kg/injection, schedule: Q01DX001 (ip), vehicle: carboxymethylcellulose (CMC)
# [4] = dose: 400.0 mg/kg/injection, schedule: Q01DX001 (ip), vehicle: carboxymethylcellulose (CMC)
# [5] = dose: 100.0 mg/kg/injection, schedule: Q01DX001 (ip), vehicle: Klucel (hydroxypropylcellulose) (HPC)
# [6] = dose: 200.0 mg/kg/injection, schedule: Q01DX001 (ip), vehicle: Klucel (hydroxypropylcellulose) (HPC)
# [7] = dose: 400.0 mg/kg/injection, schedule: Q01DX001 (ip), vehicle: Klucel (hydroxypropylcellulose) (HPC)
# [8] = dose: 100.0 mg/kg/injection, schedule: Q01DX009 (ip), vehicle: Klucel (hydroxypropylcellulose) (HPC)
# [9] = dose: 200.0 mg/kg/injection, schedule: Q01DX009 (ip), vehicle: Klucel (hydroxypropylcellulose) (HPC)
# [10] = dose: 400.0 mg/kg/injection, schedule: Q01DX009 (ip), vehicle: Klucel (hydroxypropylcellulose) (HPC)
# [11] = dose: 100.0 mg/kg/injection, schedule: Q04DX002 (ip), vehicle: Klucel (hydroxypropylcellulose) (HPC)
# [12] = dose: 50.0 mg/kg/injection, schedule: Q01DX001 (ip), vehicle: saline
# [13] = dose: 200.0 mg/kg/injection, schedule: Q01DX001 (ip), vehicle: saline
structure (smiles),measurement,setting,value
S=C(N/N=C\c1ccc(Cl)cc1Cl)Nc1ccc2cn[nH]c2c1,T/C,[1],102 % of control
same,T/C,[2],98 % of control
same,T/C,[3],86 % of control
same,T/C,[4],91 % of control
CN(C)[S+](C)(=O)/C=C(/[O-])c1ccccc1 (centres undefined),T/C,"dose: 62.5 mg/kg/injection, schedule: Q01DX001 (ip), vehicle: saline",106 % of control
same,T/C,"dose: 125.0 mg/kg/injection, schedule: Q01DX001 (ip), vehicle: saline",102 % of control
same,T/C,"dose: 250.0 mg/kg/injection, schedule: Q01DX001 (ip), vehicle: saline",102 % of control
CN(CCCN1C(=O)c2ccccc2C1=O)c1ccc(NS(=O)(=O)c2ccc([N+](=O)[O-])cc2)cc1,T/C,[5],100 % of control
same,T/C,[6],103 % of control
same,T/C,[7],97 % of control
COc1cc(OC)c(N=Cc2ccc3c(c2)OCO3)cc1Cl,T/C,[8],91 % of control
same,T/C,[9],98 % of control
same,T/C,[10],96 % of control
O=C(Oc1ccc(N=Cc2ccc3c(c2)OCO3)cc1)Oc1ccc(N=Cc2ccc3c(c2)OCO3)cc1,T/C,[2],96 % of control
same,T/C,[3],95 % of control
same,T/C,[4],93 % of control
OC/C(I)=C(I)\C(I)=C(\I)CO,T/C,"dose: 25.0 mg/kg/injection, schedule: Q04DX002 (ip), vehicle: Klucel (hydroxypropylcellulose) (HPC)",90 % of control
same,T/C,"dose: 50.0 mg/kg/injection, schedule: Q04DX002 (ip), vehicle: Klucel (hydroxypropylcellulose) (HPC)",90 % of control
same,T/C,[11],94 % of control and 101 % of control
CCCCCCCCCCCCC(CC(=O)O)C(=O)N(CCO)CCO (centres undefined),T/C,"dose: 12.5 mg/kg/injection, schedule: Q01DX001 (ip), vehicle: saline",97 % of control
same,T/C,"dose: 25.0 mg/kg/injection, schedule: Q01DX001 (ip), vehicle: saline",94 % of control
same,T/C,[12],91 % of control
same,T/C,[13],97 % of control
C[n+]1ccccc1/C=C/c1cccc(O)c1,T/C,"dose: 9.38 mg/kg/injection, schedule: Q01DX001 (ip), vehicle: other",103 % of control
same,T/C,"dose: 18.75 mg/kg/injection, schedule: Q01DX001 (ip), vehicle: other",100 % of control
CC[N+](C)(CC)CC1CC(C)OC1=O (centres undefined),T/C,"dose: 50.0 mg/kg/injection, schedule: Q01DX009 (ip), vehicle: saline",95 % of control
same,T/C,"dose: 100.0 mg/kg/injection, schedule: Q01DX009 (ip), vehicle: saline",109 % of control
same,T/C,"dose: 200.0 mg/kg/injection, schedule: Q01DX009 (ip), vehicle: saline",98 % of control
CCCCCCCCCCCCCCCCCCn1cnc2ncnc(Cl)c21,T/C,"dose: 12.5 mg/kg/injection, schedule: Q01DX005 (ip), vehicle: other",107 % of control
same,T/C,"dose: 25.0 mg/kg/injection, schedule: Q01DX005 (ip), vehicle: other",102 % of control
same,T/C,"dose: 50.0 mg/kg/injection, schedule: Q01DX005 (ip), vehicle: other",98 % of control
same,T/C,"dose: 100.0 mg/kg/injection, schedule: Q01DX005 (ip), vehicle: other",106 % of control
same,T/C,"dose: 200.0 mg/kg/injection, schedule: Q01DX005 (ip), vehicle: other",93 % of control
C=CCNC(=S)Nc1cccc(OC(=O)NC2CCCCC2)c1,T/C,[8],103 % of control
same,T/C,[9],105 % of control
same,T/C,[10],97 % of control
COc1ccc(NC(=S)Nc2ccccc2)c(Cl)c1,T/C,[11],105 % of control
same,T/C,"dose: 200.0 mg/kg/injection, schedule: Q04DX002 (ip), vehicle: Klucel (hydroxypropylcellulose) (HPC)",97 % of control
same,T/C,"dose: 400.0 mg/kg/injection, schedule: Q04DX002 (ip), vehicle: Klucel (hydroxypropylcellulose) (HPC)",108 % of control
CCOC(=O)C(=O)CC(=O)/C=C/c1ccccc1,T/C,"dose: 100.0 mg/kg/injection, schedule: Q01DX009 (ip), vehicle: saline with Tween-80",96 % of control
same,T/C,"dose: 100.0 mg/kg/injection, schedule: Q04DX003 (ip), vehicle: Klucel (hydroxypropylcellulose) (HPC)",101 % of control
same,T/C,"dose: 200.0 mg/kg/injection, schedule: Q01DX009 (ip), vehicle: saline with Tween-80",101 % of control
same,T/C,"dose: 200.0 mg/kg/injection, schedule: Q04DX003 (ip), vehicle: Klucel (hydroxypropylcellulose) (HPC)",98 % of control
same,T/C,"dose: 400.0 mg/kg/injection, schedule: Q01DX009 (ip), vehicle: saline with Tween-80",98 % of control
same,T/C,"dose: 400.0 mg/kg/injection, schedule: Q04DX003 (ip), vehicle: Klucel (hydroxypropylcellulose) (HPC)",101 % of control
O=C1NC(=O)C(c2cccc(Cl)c2)N1 (centres undefined),T/C,[12],106 % of control
same,T/C,"dose: 100.0 mg/kg/injection, schedule: Q01DX001 (ip), vehicle: saline",93 % of control
same,T/C,[13],98 % of control
same,T/C,"dose: 400.0 mg/kg/injection, schedule: Q01DX001 (ip), vehicle: saline",104 % of control
CCOC(=O)C(CC(=O)O)C1=CCCc2ccccc21 (centres undefined),T/C,[5],96 % of control
same,T/C,[8],90 % of control
same,T/C,[6],104 % of control
same,T/C,[9],91 % of control
same,T/C,[7],90 % of control
same,T/C,[10],90 % of control
O=C(C[n+]1cccc2ccccc21)c1ccc([N+](=O)[O-])cc1,T/C,"dose: 100.0 mg/kg/injection, schedule: Q04DX002 (ip), vehicle: saline with Tween-80",109 % of control
CC[N+]1(Cc2ccccc2)CC2(CCCCC2)ON2C1CC(C)C2(C)C (centres undefined),T/C,"dose: 100.0 mg/kg/injection, schedule: Q04DX003 (ip), vehicle: saline with Tween-80",91 % of control
CN1CCCCC(=N\O)/C(=N/O)CCCC1,T/C,[1],89 % of control
same,T/C,[2],89 % of control
same,T/C,[3],104 % of control
COc1ccc(C(=O)Nc2ccccc2)cc1N,T/C,"dose: 50.0 mg/kg/injection, schedule: Q01DX009 (ip), vehicle: carboxymethylcellulose (CMC)",96 % of control
same,T/C,"dose: 100.0 mg/kg/injection, schedule: Q01DX009 (ip), vehicle: carboxymethylcellulose (CMC)",103 % of control
same,T/C,"dose: 200.0 mg/kg/injection, schedule: Q01DX009 (ip), vehicle: carboxymethylcellulose (CMC)",94 % of control
same,T/C,[4],120 % of control
same,T/C,"dose: 400.0 mg/kg/injection, schedule: Q01DX009 (ip), vehicle: carboxymethylcellulose (CMC)",100 % of control
same,T/C,"dose: 600.0 mg/kg/injection, schedule: Q01DX001 (ip), vehicle: carboxymethylcellulose (CMC)",114 % of control
same,T/C,"dose: 800.0 mg/kg/injection, schedule: Q01DX001 (ip), vehicle: carboxymethylcellulose (CMC)",118 % of control
same,T/C,"dose: 1000.0 mg/kg/injection, schedule: Q01DX001 (ip), vehicle: carboxymethylcellulose (CMC)",114 % of control
O=NN(CCCl)C(=O)NC1CCC(Cl)CC1 (centres undefined),T/C,"dose: 12.0 mg/kg/injection, schedule: Q01DX001 (ip), vehicle: Klucel (hydroxypropylcellulose) (HPC)",123 % of control
same,T/C,"dose: 21.0 mg/kg/injection, schedule: Q01DX001 (ip), vehicle: Klucel (hydroxypropylcellulose) (HPC)",217 % of control
same,T/C,"dose: 21.0 mg/kg/injection, schedule: Q01DX001 (ip), vehicle: carboxymethylcellulose (CMC)",182 % of control
same,T/C,"dose: 26.0 mg/kg/injection, schedule: Q01DX001 (ip), vehicle: Klucel (hydroxypropylcellulose) (HPC)",303 % of control
same,T/C,"dose: 34.0 mg/kg/injection, schedule: Q01DX001 (ip), vehicle: Klucel (hydroxypropylcellulose) (HPC)",387 % of control
same,T/C,"dose: 34.0 mg/kg/injection, schedule: Q01DX001 (ip), vehicle: carboxymethylcellulose (CMC)",346 % of control
same,T/C,"dose: 40.0 mg/kg/injection, schedule: Q01DX001 (ip), vehicle: Klucel (hydroxypropylcellulose) (HPC)",291 % of control
same,T/C,"dose: 49.0 mg/kg/injection, schedule: Q01DX001 (ip), vehicle: Klucel (hydroxypropylcellulose) (HPC)",460 % of control
same,T/C,"dose: 49.0 mg/kg/injection, schedule: Q01DX001 (ip), vehicle: carboxymethylcellulose (CMC)",469 % of control
same,T/C,"dose: 60.0 mg/kg/injection, schedule: Q01DX001 (ip), vehicle: Klucel (hydroxypropylcellulose) (HPC)",275 % of control
same,T/C,"dose: 74.0 mg/kg/injection, schedule: Q01DX001 (ip), vehicle: Klucel (hydroxypropylcellulose) (HPC)",439 % of control
same,T/C,"dose: 74.0 mg/kg/injection, schedule: Q01DX001 (ip), vehicle: carboxymethylcellulose (CMC)",469 % of control
same,T/C,"dose: 90.0 mg/kg/injection, schedule: Q01DX001 (ip), vehicle: Klucel (hydroxypropylcellulose) (HPC)",91 % of control
same,T/C,"dose: 110.0 mg/kg/injection, schedule: Q01DX001 (ip), vehicle: Klucel (hydroxypropylcellulose) (HPC)",218 % of control
same,T/C,"dose: 110.0 mg/kg/injection, schedule: Q01DX001 (ip), vehicle: carboxymethylcellulose (CMC)",153 % of control
same,T/C,"dose: 133.0 mg/kg/injection, schedule: Q01DX001 (ip), vehicle: Klucel (hydroxypropylcellulose) (HPC)",98 % of control
